Assay results: ChEMBL document CHEMBL5620346, “Current scenario of pyrazole hybrids with in vivo therapeutic potential against cancers” (Eur J Med Chem, 2023)

Assays:
H22 [1] = experiment: Antitumor activity against mouse H22 cells implanted in Kunming mouse assessed as reduction in tumor growth at 20 mg/kg, iv relative to control; assay type: functional; conditions: read-out: TGI
H22 [2] = experiment: Antitumor activity against mouse H22 cells implanted in Kunming mouse assessed as reduction in tumor growth at 10 mg/kg, iv relative to control; assay type: functional; conditions: read-out: TGI
[3] = target: Cyclin-dependent kinase 4 (Homo sapiens, UniProt P11802); experiment: Inhibition of CDK4 (unknown origin)
[4] = target: Receptor-type tyrosine-protein kinase FLT3 (Homo sapiens, UniProt P36888, D835H); experiment: Inhibition of FLT3 D835H mutant (unknown origin)
MV4-11 = experiment: Antitumor activity against human MV4-11 cells xenografted in mouse assessed as tumor growth inhibition at 200 mg/kg, po relative to control; assay type: functional; conditions: read-out: TGI
[5] = Oral bioavailability in dog; conditions: in vivo
[6] = Oral bioavailability in rat; conditions: in vivo
MCF7 [7] = experiment: Cytotoxicity against human MCF7 cells assessed as reduction in cell viability incubated for 72 hrs by MTT assay; assay type: functional, cell-based; conditions: MCF7, 72 h
HeLa [8] = experiment: Cytotoxicity against human HeLa cells assessed as reduction in cell viability incubated for 72 hrs by MTT assay; assay type: functional, cell-based
HepG2 = experiment: Cytotoxicity against human HepG2 cells assessed as reduction in cell viability incubated for 72 hrs by MTT assay; assay type: functional, cell-based; conditions: HepG2, 72 h
HCT-116 [9] = experiment: Antitumor activity against human HCT-116 cells xenografted in BALB/c nude mouse assessed as tumor growth inhibition at 25 mg/kg, po administered once a daily for 13 consecutive days relative to control; assay type: functional; conditions: read-out: TGI
OE19 [10] = experiment: Antitumor activity against human OE19 cells xenografted in NOD/SCID mouse model assessed as tumor growth inhibition at 25 mg/kg, ip administered for 14 days relative to control; assay type: functional; conditions: OE19, 336 h, time 14 day, read-out: TGI
NCI-H460 = experiment: Antitumor activity against human NCI-H460 cells xenografted in nude mouse assessed as tumor growth inhibition at 6.25 mg/kg, po administered twice daily for 14 days in presence of 2-deoxyglucose relative to control; assay type: functional; design: scale not given: the % may be the effect or the level left; conditions: time 14 day
OE19 [11] = experiment: Antitumor activity against human OE19 cells xenografted in NOD/SCID mouse model assessed as tumor growth inhibition at 25 mg/kg, ip administered for 14 days in presence of flavopiridol relative to control; assay type: functional; design: scale not given: the % may be the effect or the level left; conditions: time 14 day
OE19 [12] = experiment: Antitumor activity against human OE19 cells xenografted in NOD/SCID mouse model assessed as tumor growth inhibition at 25 mg/kg, ip administered for 46 days relative to control; assay type: functional; design: scale not given: the % may be the effect or the level left; conditions: time 46 day
[13] = target: Ubiquitin carboxyl-terminal hydrolase 8 (Homo sapiens, UniProt P40818); experiment: Inhibition of human USP8 expressed in Escherichia coli using K63-linked di-ubiquitin (ENZO BML-UW0730-0050) as substrate preincubated for 15 mins followed by substrate addition and measured after 20 mins by fluorescence based analysis
MDA-MB-435 = experiment: Antitumor activity against human MDA-MB-435 cells xenografted in Sprague-Dawley rat model assessed as reduction in tumor volume at 50 mg/kg, ip relative to control; assay type: functional; design: scale not given: the % may be the effect or the level left
HT-29 [14] = experiment: Antitumor activity against human HT-29 cells xenografted in nude mouse assessed as reduction in tumor growth at 50 mg/kg, po administered for 21 days relative to control; assay type: functional; conditions: HT-29, 504 h, time 21 day, read-out: TGI
MCF7 [15] = experiment: Antiproliferative activity against human MCF7 cells assessed as cell growth inhibition incubated for 72 hrs by MTT assay; assay type: functional, cell-based; conditions: MCF7, 72 h
HT-29 [16] = experiment: Antitumor activity against human HT-29 cells xenografted in nude mouse assessed as reduction in tumor growth at 50 mg/kg, ip administered for 21 days relative to control; assay type: functional; conditions: HT-29, 504 h, time 21 day, read-out: TGI
HT-29 [17] = experiment: Antiproliferative activity against human HT-29 cells assessed as cell growth inhibition incubated for 72 hrs by MTT assay; assay type: functional, cell-based; conditions: HT-29, 72 h
[18] = Cytotoxicity against human KOB cells assessed as cell growth inhibition incubated for 72 hrs by MTT assay; assay type: functional, cell-based
[19] = target: Heat shock protein HSP 90-alpha (Homo sapiens, UniProt P07900); experiment: Inhibition of human recombinant HSP90alpha expressed in Escherichia coli BL21 (DE3) incubated for 12 hrs by
[20] = Cytotoxicity against human HuT 102 cells assessed as reduction in cell growth incubated for 72 hrs by MTT assay; assay type: functional, cell-based; conditions: HuT-102, 72 h
[21] = Cytotoxicity against human OATL4 cells assessed as cell growth inhibition incubated for 72 hrs by MTT assay; assay type: functional, cell-based; conditions: OATL4, 72 h
[22] = target: Heat shock protein HSP 90-beta (Homo sapiens, UniProt P08238); experiment: Inhibition of human recombinant HSP90beta expressed in Escherichia coli BL21 (DE3) incubated for 12 hrs
[23] = Antitumor activity against human HuT 102 cells xenografted in mouse assessed as reduction in tumor growth at 14 mg/kg, po relative to control; assay type: functional; conditions: read-out: TGI
[24] = Tmax in mouse at 40 mg/kg, po; assay type: ADME, organism-based; conditions: in vivo
KCL-22 = experiment: Antitumor activity against human KCL-22 cells xenografted in mouse assessed as reduction in tumor growth at 3 mg/kg, po relative to control; conditions: KCL-22, po, read-out: TGI
[25] = Half life in mouse at 40 mg/kg, po; assay type: ADME, organism-based; conditions: in vivo
[26] = Oral bioavailability in mouse at 1 mg/kg; assay type: ADME, organism-based; conditions: in vivo
HT-29 [27] = experiment: Antiproliferative activity against human HT-29 cells assessed as reduction in cell viability incubated for 72 hrs by MTT assay; assay type: functional, cell-based; conditions: HT-29, 72 h
HCT-116 [28] = experiment: Antiproliferative activity against human HCT-116 cells assessed as reduction in cell viability incubated for 72 hrs by MTT assay; assay type: functional, cell-based; conditions: HCT-116, 72 h
HGC-27 = experiment: Antiproliferative activity against human HGC-27 cells assessed as reduction in cell viability incubated for 72 hrs by MTT assay; assay type: functional, cell-based; conditions: HGC-27, 72 h
[29] = Cmax in mouse at 1 mg/kg, sc; assay type: ADME, organism-based; conditions: in vivo
HT-29 [30] = experiment: Antitumor activity against human HT-29 cells xenografted in po dosed nude mouse assessed as reduction in tumor growth at 20 mg/kg relative to control; assay type: functional; conditions: read-out: TGI
HeLa [31] = experiment: Antiproliferative activity against human HeLa cells assessed as reduction in cell viability incubated for 72 hrs by MTT assay; assay type: functional, cell-based
[32] = Tmax in mouse at 1 mg/kg, sc; assay type: ADME, organism-based; conditions: in vivo
MCF7 [33] = experiment: Cytotoxicity against human MCF7 cells assessed as reduction in cell viability measured after 72 hrs by SRB assay; assay type: functional, cell-based; conditions: MCF7, 72 h
MCF-10A = experiment: Cytotoxicity against human MCF-10A cells assessed as reduction in cell viability measured after 72 hrs by SRB assay; assay type: functional, cell-based

Ubiquitin carboxyl-terminal hydrolase 8, sequence (P40818 whole entry): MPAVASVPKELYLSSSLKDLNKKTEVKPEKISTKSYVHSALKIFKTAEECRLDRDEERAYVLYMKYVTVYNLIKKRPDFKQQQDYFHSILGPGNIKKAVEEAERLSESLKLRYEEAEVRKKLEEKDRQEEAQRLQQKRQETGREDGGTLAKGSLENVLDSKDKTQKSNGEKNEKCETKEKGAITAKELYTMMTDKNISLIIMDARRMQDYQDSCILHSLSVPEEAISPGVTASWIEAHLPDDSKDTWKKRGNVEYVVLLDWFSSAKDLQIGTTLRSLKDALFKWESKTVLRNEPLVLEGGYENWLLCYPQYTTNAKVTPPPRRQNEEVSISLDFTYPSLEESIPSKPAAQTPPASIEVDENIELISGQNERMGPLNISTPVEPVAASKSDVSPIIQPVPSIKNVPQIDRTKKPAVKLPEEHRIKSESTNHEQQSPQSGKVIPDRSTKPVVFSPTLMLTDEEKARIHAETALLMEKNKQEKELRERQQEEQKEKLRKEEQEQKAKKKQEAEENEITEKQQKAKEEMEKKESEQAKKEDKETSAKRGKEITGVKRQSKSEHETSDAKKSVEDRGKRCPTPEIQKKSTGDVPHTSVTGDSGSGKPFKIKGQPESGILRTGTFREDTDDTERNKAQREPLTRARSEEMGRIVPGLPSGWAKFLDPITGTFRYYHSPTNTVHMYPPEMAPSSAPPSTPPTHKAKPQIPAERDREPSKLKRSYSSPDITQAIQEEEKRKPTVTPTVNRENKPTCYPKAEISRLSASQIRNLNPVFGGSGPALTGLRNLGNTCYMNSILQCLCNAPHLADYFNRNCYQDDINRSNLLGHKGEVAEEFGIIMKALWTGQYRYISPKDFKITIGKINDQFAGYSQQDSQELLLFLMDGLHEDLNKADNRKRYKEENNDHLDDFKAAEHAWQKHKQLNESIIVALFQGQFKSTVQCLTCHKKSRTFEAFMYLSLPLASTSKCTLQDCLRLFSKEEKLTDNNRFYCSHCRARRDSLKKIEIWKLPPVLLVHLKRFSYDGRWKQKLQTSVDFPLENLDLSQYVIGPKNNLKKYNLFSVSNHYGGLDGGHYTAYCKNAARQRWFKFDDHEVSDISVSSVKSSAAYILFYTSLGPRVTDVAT
Cyclin-dependent kinase 4, sequence (P11802 whole entry): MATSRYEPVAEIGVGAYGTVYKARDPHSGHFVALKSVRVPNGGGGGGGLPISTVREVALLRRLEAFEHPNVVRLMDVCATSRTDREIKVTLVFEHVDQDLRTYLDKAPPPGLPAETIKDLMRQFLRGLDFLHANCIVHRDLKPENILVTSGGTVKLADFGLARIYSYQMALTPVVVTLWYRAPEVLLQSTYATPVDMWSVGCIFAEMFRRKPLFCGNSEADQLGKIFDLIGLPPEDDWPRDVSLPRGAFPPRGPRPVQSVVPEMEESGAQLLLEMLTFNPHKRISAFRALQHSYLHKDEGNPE
Heat shock protein HSP 90-beta, sequence (P08238 whole entry): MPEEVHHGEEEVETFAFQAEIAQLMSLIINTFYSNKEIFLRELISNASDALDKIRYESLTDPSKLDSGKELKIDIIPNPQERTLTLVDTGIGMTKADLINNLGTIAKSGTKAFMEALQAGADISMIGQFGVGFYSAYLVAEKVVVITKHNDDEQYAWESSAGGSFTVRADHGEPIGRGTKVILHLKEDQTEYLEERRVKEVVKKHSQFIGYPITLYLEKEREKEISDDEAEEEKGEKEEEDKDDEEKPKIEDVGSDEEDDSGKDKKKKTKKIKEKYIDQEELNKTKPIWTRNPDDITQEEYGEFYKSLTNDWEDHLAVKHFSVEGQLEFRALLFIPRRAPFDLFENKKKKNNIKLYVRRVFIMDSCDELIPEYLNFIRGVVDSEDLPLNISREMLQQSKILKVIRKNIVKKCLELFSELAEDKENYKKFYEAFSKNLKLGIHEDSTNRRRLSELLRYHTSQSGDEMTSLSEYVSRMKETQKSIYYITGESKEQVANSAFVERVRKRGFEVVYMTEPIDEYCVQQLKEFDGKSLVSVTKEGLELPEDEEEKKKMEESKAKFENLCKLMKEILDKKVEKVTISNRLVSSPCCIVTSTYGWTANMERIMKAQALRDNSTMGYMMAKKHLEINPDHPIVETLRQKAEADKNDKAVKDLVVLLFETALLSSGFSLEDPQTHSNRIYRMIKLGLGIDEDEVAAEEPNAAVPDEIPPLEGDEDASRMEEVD

**Q.** Which inhibition in vivo at 20 mg/kg (H22 [1]) does the source give for `COc1cccc(C2=NN(C(N)=O)C(c3cn(C)c4ccc(Br)cc34)C2)c1` (stereo unspecified) here?
**A.** 76%

**Q.** And the inhibition in vivo at 10 mg/kg (H22 [2])?
**A.** 65%

**Q.** What does the source list for `CCN1CCN(c2ccc(Nc3ncc(F)c(-c4cnc5cnn(C(C)C)c5c4)n3)cc2OC)CC1`?
**A.** IC50 [3]: 7 nM; IC50 [4]: 11 nM; inhibition in vivo at 200 mg/kg (MV4-11): 67%

**Q.** Which bioavailability [5] does the source give for `COc1cc(OC)c(F)c(COc2cnc(Nc3cnn(CCO)c3)nc2)c1F` [ASP-5878] here?
**A.** 94.2%

**Q.** And the bioavailability [6]?
**A.** 76.1%

**Q.** Which IC50 (MCF7 [7]) does the source give for `CCOC(=O)C1=C(N)Nc2[nH]nc(C)c2C1c1ccc(N(C)C)cc1` (stereo unspecified) here?
**A.** 4240 nM

**Q.** What about the IC50 (HeLa [8]) of the same compound?
**A.** 4180 nM

**Q.** And the IC50 (HepG2)?
**A.** 4550 nM

**Q.** With `O=c1[nH]cc(F)c(=O)[nH]1` [FLUOROURACIL] as the compound, how does the inhibition in vivo at 25 mg/kg (HCT-116 [9]) read?
**A.** 54.8%

**Q.** Which IC50 (MCF7 [7]) does the source give for `CCOC(=O)C1=C(N/C=N/c2cccnc2Cl)Nc2[nH]nc(C)c2C1c1ccc(N(C)C)cc1` (stereo unspecified) here?
**A.** 4240 nM

**Q.** And the IC50 (HeLa [8])?
**A.** 4180 nM

**Q.** What about the IC50 (HepG2) of the same compound?
**A.** 4550 nM

**Q.** Which results are given for `Cc1n[nH]c2c1C(c1ccc(N(C)C)cc1)C(C(N)=O)=C(N)N2` (stereo unspecified)?
**A.** IC50 (MCF7 [7]): 4240 nM; IC50 (HeLa [8]): 4180 nM; IC50 (HepG2): 4550 nM

**Q.** What does the source list for `C[C@@]1(C(=O)Nc2ccc(F)nc2)CCCN1c1nc(Nc2cc(C3CC3)n[nH]2)c2cccn2n1` [BMS-754807]?
**A.** inhibition in vivo at 25 mg/kg (OE19 [10]): 52%; Activity (NCI-H460): 69%; Activity (OE19 [11]): 92.2%; Activity (OE19 [12]): 61.8%

**Q.** With `Brc1ccc(-n2nc(-c3cccnc3)cc2-c2ccccc2)cc1` as the compound, how does the IC50 [13] read?
**A.** 1200 nM

**Q.** And the Activity (MDA-MB-435)?
**A.** 40%

**Q.** With `O=C1CN(CC(=O)N2N=C(c3ccccc3)CC2c2ccccc2)C(=O)N1` (stereo unspecified) as the compound, how does the inhibition in vivo at 50 mg/kg (HT-29 [14]) read?
**A.** 34%

**Q.** And the IC50 (MCF7 [15])?
**A.** 690 nM

**Q.** What about the inhibition in vivo at 50 mg/kg (HT-29 [16]) of the same compound?
**A.** 31%

**Q.** What about the IC50 (HT-29 [17]) of the same compound?
**A.** 10 nM

**Q.** Which IC50 [18] does the source give for `CCc1cc(C(N)=O)ccc1-n1nc(C(C)C)c2c(-n3cnc(-c4cnn(C)c4)c3)ccnc21` [TAS-116] here?
**A.** 376 nM

**Q.** What about the IC50 [19] of the same compound?
**A.** 34.7 nM

**Q.** What about the IC50 [20] of the same compound?
**A.** 376 nM

**Q.** What about the IC50 [21] of the same compound?
**A.** 376 nM

**Q.** What about the IC50 [22] of the same compound?
**A.** 21.3 nM

**Q.** What about the inhibition in vivo at 14 mg/kg [23] of the same compound?
**A.** 70%

**Q.** Which results are given for `O=C(Nc1ccc(OC(F)(F)Cl)cc1)c1cnc(N2CC[C@@H](O)C2)c(-c2ccn[nH]2)c1` [ASCIMINIB]?
**A.** Tmax [24]: 2.5 h; inhibition in vivo at 3 mg/kg (KCL-22): 65%; half-life [25]: 5.5 h

**Q.** Which bioavailability [26] does the source give for `COc1cc(/C=C2\CCCN3C(=O)C4C=NN(C)C4N=C23)cc(OC)c1OC` (stereo unspecified) here?
**A.** 78.6%

**Q.** What about the IC50 (HT-29 [27]) of the same compound?
**A.** 30 nM

**Q.** What about the IC50 (HCT-116 [28]) of the same compound?
**A.** 30 nM

**Q.** What about the IC50 (HGC-27) of the same compound?
**A.** 30 nM

**Q.** And the Cmax [29]?
**A.** 68.8 ng/mL

**Q.** What about the inhibition in vivo at 20 mg/kg (HT-29 [30]) of the same compound?
**A.** 61.7%

**Q.** And the IC50 (HeLa [31])?
**A.** 30 nM

**Q.** What about the Tmax [32] of the same compound?
**A.** 1.67 h

**Q.** For `COc1ccc(C2CC(c3ccc(OC)c(OC)c3)=NN2c2nc(-c3ccccc3)cs2)cc1` (stereo unspecified), which IC50 (MCF7 [33]) is on record?
**A.** 7210 nM

**Q.** And the IC50 (MCF-10A)?
**A.** > 50000 nM
